Reference: patent US20090036437A1, “PHARMACEUTICAL COMPOSITION COMPRISING PHENOXAZINIUM COMPOUND AS AN ACTIVE INGREDIENT” (priority 2005, published 2009)
Marks after values point to notes of the source that are not given here.

Key:
[1] = system: Plasmodium berghei NK65 strain; assay: in vivo treatment test by oral administration into mouse infected with malaria; details: for Cure rate (%) / life-elongation effect: oral; for Cure rate (%): 5 days after infection
Experimental: This test was carried out in accordance with 4-day suppressive test that is a general in vivo test for the activity of an anti-malaria compound. Rodent malaria protozoa (Plasmodium berghei NK65 strain) were used in this test. Infected blood was prepared by infection with intraperitoneal administration into ICR male mouse (5 weeks age; SPF) and passage culture (subculture) thereafter. Blood was drawn from the vein of a tail of the moue infected with malaria, and its infection ratio was determined. After it was confirmed that the infection ratio had been increased up to an appropriated level (10˜20%), the blood infected with malaria was drawn from the heart of the mouse. The infection ratio and number (cells/mL) of erythrocytes were determined. An uninfected mouse (ICR male, 5 weeks age) was then infected with an injection of the infected erythrocytes so diluted with PBS as to comprise the protozoa of […] per dose (0.2 mL) into the vein of its tail.
A test sample was prepared by dissolving the test compounds according to the present invention into physiologic saline (Otsuka Pharmaceuticals Industries) to a predetermined concentration. In the case where the compound was insoluble in water, it was dissolved into DMSO or Tween 20 to prepare the test sample. A control group (no drug-administration group) was treated only with physiologic saline. Weight of the mouse was determined so that a dose would comprise 5.0 mg per 1 kg of its weight.
One group consisted of five mice. The intraperitoneal administration of the test sample started after two hours from the infection with malaria and continued for successive 4 days with a 24-hour interval. After 24 hours from the last administration, blood was drawn from the tail of the infected mouse to prepare a thin-layer smear, and the number of the erythrocytes infected with the malaria protozoa under a microscope with respect to the control group and the test sample groups. Parasitemia, i.e., the infection ratio with the malaria protozoa, was obtained by calculating an average value of the medium three mice except the two mice showing a maximum or minimum inhibition level. A cure rate (suppression) was then calculated from the resulting parasitemia in accordance with the following equation.
Cure rate: suppression (%)=(b−a)/b×100 • a: Infection ratio of the test sample group; and • b: Infection ratio of the control group.
The cure rate (%) of the mice after 5 days from the infection with malaria and the treatment with A-1 (60% purity) according to Example 5 (25-100 mg/kg/day, through the oral administration) were shown in TABLE 6. The oral administration, starting after two hours from the infection with malaria, consisted of four times with a 24-hour interval, 12 times with 8-hour interval or single dose.
The cure rate (%) of the mice after 5 days from the infection with malaria and the treatment with A-1 (100 mg/kg/day, through the oral administration of four times with a 24-hour interval or singe dose) were shown in TABLE 7.

[2] = in vitro growth-inhibiting assay of rat L6 cells; type: cell-based; details: rat, L6 cells (rat skeletal myoblast cells); Table 3; 72 h, Alamar Blue; read-out: 50% growth-inhibiting concentration (nM) cytotoxicity L6

CCN(CC)c1ccc2nc3ccc(=[N+](CC)CC)cc-3oc2c1.[Cl-] [A-1 (>95% purity)]
Cure rate (%) ([1]; Table 7, four times with 24-hour interval, 100 mg/kg/dose): >99.99% | Cure rate (%) ([1]; Table 7, single administration, 100 mg/kg/dose): 78.3% | life-elongation effect ([1]; all treatments of Table 7): significant life-elongation effect

CCN(CC)c1ccc2nc3ccc(=[N+](CC)CC)cc-3oc2c1.[Cl-] [A-1 (60% purity)]
mice still alive after 30 days ([1]; oral 100 mg/kg four times with a 24-hour interval, one mouse died on day 21): three mice of the four mice | presence of the protozoa of malaria in blood of surviving mice after 36 days ([1]; oral 100 mg/kg four times with a 24-hour interval, three surviving mice): No protozoa of malaria was shown to be present in the blood | Cure rate (%) ([1]; 12 times with 8-hour interval, 15 mg/kg/dose): >99.99% | life-elongation effect ([1]; all treatments of Table 6): significant life-elongation effect | Cure rate (%) ([1]; four times with a 24-hour interval, 25 mg/kg/dose): 82.3% | Cure rate (%) ([1]; four times with a 24-hour interval, 50 mg/kg/dose): 98.6% | Cure rate (%) ([1]; four times with a 24-hour interval, 90 mg/kg/dose): >99.99% | Cure rate (%) ([1]; four times with a 24-hour interval, 100 mg/kg/dose, one of five mice died due to technical error): >99.99* % | Cure rate (%) ([1]; single administration, 100 mg/kg/dose): >99.99%

CC[N+](CC)=c1ccc2nc3ccc(N(C)C)cc3oc-2c1 [Compound A-4]
EC50 at 72 h [2]: 4690 nM
